Values of other authors in US10695318B2, “Methods and compositions for improving cognitive function” (MARS, Incorporated, priority 2006, dated 2020).

Tested on: global CBF
Settings: inhalation of 5% C02 as vasodilative stimulus

O=C=O [C02]
global CBF increases: approximately 87%
